Several values for one entry are separate records, joined by “and”; a condition that tells them apart may be missing. Identical values can stand only once.
Legend:
DegP [1] = molecular target: T1, DegP (Escherichia coli, UniProt P0C0V0); settings: for cleavage of fluorescence-quench peptide by DegP: 8 μM (SPCJ-12) or 10 μM peptide, 25 mM HEPES, 5 mM CaCl2, 45° C.
DegP [2] = molecular target: T1, DegP; settings: scaled-up (5 ml) cleavage reaction, MALDI-TOF MS of products
DegP [3] = molecular target: T1, DegP; settings: 7-mer and 12-mer Abz-tagged cellulose-bound peptides, 0.28 mg/ml DegP, 5 mM MgCl2, up to 28 hours
DegP protease = DegP protease (Escherichia coli, UniProt P0C0V0); settings: for effect of divalent cation on DegP cleavage of PapA-6H4A-rcm: 5 mM
DegP [4] = molecular target: T1, DegP; settings: cited from earlier work
[5] = molecular target: SPCJ-14 - Abz-[…]-DAP(Dnp)-NH2

Abz-HYTAVVKKSSAV-DAP(Dnp)-NH2 [SPCJ-12]
cleavage of fluorescence-quench peptide by DegP (DegP [1]; 5 μg DegP): cleaved SPCJ-12 in a time-dependent fashion | DegP cleavage site in substrate peptide (DegP [2]): cleaved between the paired valine residues

TLKDGENVLHYT
cleavage of PapA library peptide by DegP in solid-phase scan (DegP [3]): cleaved by DegP

KLAFTGPIVNGH
cleavage of PapA library peptide by DegP in solid-phase scan (DegP [3]): cleaved by DegP

NGHSDEL
cleavage of PapA library peptide by DegP in solid-phase scan (DegP [3]): cleaved by DegP

NVLHYTA
cleavage of PapA library peptide by DegP in solid-phase scan (DegP [3]): cleaved by DegP

ELVNCDI
cleavage of PapA library peptide by DegP in solid-phase scan (DegP [3]): cleaved by DegP

[Cl-].[Cl-].[Mg+2] [MgCl2, reference compound]
input PapA-6H4A-rcm cleaved by DegP in presence of divalent cation (DegP protease; 5 mM cation, 20 μg DegP, 20 μg substrate, 4 hours at 45° C.): ~50%

DGENVLH
cleavage of PapA library peptide by DegP in solid-phase scan (DegP [3]): cleaved by DegP

[Cl][Mn][Cl] [MnCl2, reference compound]
effect of divalent cation on DegP cleavage of PapA-6H4A-rcm (DegP protease): stimulated DegP cleavage

HYTAVVKKSSAV
cleavage of PapA library peptide by DegP in solid-phase scan (DegP [3]): cleaved by DegP

Abz-HYTASSK-DAP(Dnp)-NH2 [SPCJ-14]
cleavage of fluorescence-quench peptide by DegP (DegP [1]; 5 μg DegP): lack of cleavage | inhibition of DegP cleavage of SPCJ-13 (DegP [1]; 10-fold molar excess (100 μM vs 10 μM SPCJ-13), 30 minutes pre-incubation with 5 μg DegP, then 60 minutes): blocked cleavage of SPCJ-13

KSMCMKLSFS [SPCJ-1]
PapA-6H4A-rcm cleaved by DegP in presence of activating peptide, 60 minutes (DegP protease; 200 μM peptide, 5 μg DegP, 40 μg substrate, 5 mM MgCl2, 45° C., 60 minutes): 50% and > 50% | PapA-6H4A-rcm cleaved by DegP in presence of activating peptide, four hours (DegP protease; 200 μM peptide, 5 μg DegP, 40 μg substrate, 5 mM MgCl2, 45° C., four hours): ~90% | effect of peptide on DegP cleavage of SPCJ-13 (DegP [1]; 200 μM peptide added at onset of incubation, 5 μg DegP): enhanced cleavage of SPCJ-13

FTGPIVNGHSDE
cleavage of PapA library peptide by DegP in solid-phase scan (DegP [3]): cleaved by DegP

LDIELVNCDITA
cleavage of PapA library peptide by DegP in solid-phase scan (DegP [3]): cleaved by DegP

[Ca+2].[Cl-].[Cl-] [CaCl2, reference compound]
effect of divalent cation on DegP cleavage of PapA-6H4A-rcm (DegP protease): stimulated DegP cleavage

O=S(=O)(F)Cc1ccccc1 [phenylmethylsulfonylfluoride]
inhibition of DegP activity (DegP [4]): not inhibited

Abz-HYTAVVK-DAP(Dnp)-NH2 [SPCJ-13]
cleavage of fluorescence-quench peptide by DegP (DegP [1]; 5 μg DegP): cleaved SPCJ-13 in a time-dependent fashion | DegP cleavage site in substrate peptide (DegP [2]): cleavage between the paired valine residues

HYTAVVK
cleavage of PapA library peptide by DegP in solid-phase scan (DegP [3]): cleaved by DegP

B1: DegP protease (protein)
chain: AETSSATTAQQMPSLAPMLEKVMPSVVSINVEGSTTVNTPRMPRNFQQFFGDDSPFCQEGSPFQSSPFCQGGQGGNGGGQQQKFMALGSGVIIDADKGYVVTNNHVVDNATVIKVQLSDGRKFDAKMVGKDPRSDIALIQIQNPKNLTAIKMADSDALRVGDYTVAIGNPFGLGETVTSGIVSALGRSGLNAENYENFIQTDAAINRGNSGGALVNLNGELIGINTAILAPDGGNIGIGFAIPSNMVKNLTSQMVEYGQVKRGELGIMGTELNSELAKAMKVDAQRGAFVSQVLPNSSAAKAGIKAGDVITSLNGKPISSFAALRAQVGTMPVGSKLTLGLLRDGKQVNVNLELQQSSQNQVDSSSIFNGIEGAEMSNKGKDQGVVVNNVKTGTPAAQIGLKKGDVIIGANQQAVKNIAELRKVLDSKPSVLALNIQRGDSTIYLLMQ
cleavage in the fluorescent-quench peptide assay [5]: SPCJ-14 was not cleaved

From patent US20030109675A1 (priority 2001, published 2003)
